From PMC9864769, “Identification of Lignan Compounds as New 6-Phosphogluconate Dehydrogenase Inhibitors for Lung Cancer” (Metabolites, 2022) come the findings set out here.

This assay has as its target T1, 6-phosphogluconate dehydrogenase (6-PGD) (Homo sapiens, UniProt P52209).
T1 construct: native enzyme purified from human erythrocytes
T1 sequence (P52209 1-483): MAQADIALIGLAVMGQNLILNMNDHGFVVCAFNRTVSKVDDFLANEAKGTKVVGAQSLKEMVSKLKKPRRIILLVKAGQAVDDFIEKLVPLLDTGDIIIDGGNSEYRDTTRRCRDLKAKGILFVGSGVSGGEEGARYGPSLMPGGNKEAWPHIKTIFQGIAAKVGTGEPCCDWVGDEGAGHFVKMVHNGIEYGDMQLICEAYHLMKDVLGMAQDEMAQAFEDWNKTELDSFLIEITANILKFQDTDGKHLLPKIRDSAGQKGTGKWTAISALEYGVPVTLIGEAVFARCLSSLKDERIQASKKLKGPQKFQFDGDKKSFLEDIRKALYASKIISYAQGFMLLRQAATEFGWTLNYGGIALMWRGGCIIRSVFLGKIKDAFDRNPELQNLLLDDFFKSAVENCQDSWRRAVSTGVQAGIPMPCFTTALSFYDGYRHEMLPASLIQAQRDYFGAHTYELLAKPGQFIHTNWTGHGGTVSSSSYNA
In words: enzyme activity assay (NADPH absorbance at […] nm) on 6-PGD purified from human erythrocytes; also A549 lysate assay. The assay is classed as biochemical. To be noted: read-out: % reduction of activity at 200 μg/mL.

Molecules are shown by their SMILES.

For `COc1cc([C@H]2Oc3c(OC)cc4ccc(=O)oc4c3O[C@@H]2CO)ccc1O` [cleomiscosin A], the inhibition at 200 µg/mL is 70%.
In the case of `COc1cc([C@H]2OC[C@H]3[C@@H]2CO[C@@H]3c2cc(OC)c(O)c(OC)c2)cc(OC)c1O` [syringaresinol], the inhibition at 200 µg/mL came to 76.3%.
